# Entries after “also recorded” stand apart in the source; their conditions may differ.
# B1: IL-10: interleukin-10 (PeproTech), macrophage stimulating cytokine (protein, UniProt P22301 19-178, looked up)
# Interleukin-10: SPGQGTQSENSCTHFPGNLPNMLRDLRDAFSRVKTFFQMKDQLDNLLLKESLLEDFKGYLGCQALSEMIQFYLEEVMPQAENQDPDIKAHVNSLGENLKTLRLRLRRCHRFLPCENKSKAVEQVKNAFNKLQEKGIYKAMSEFDIFINYIEAYMTMKIRN
# B2: IFNγ: interferon-gamma (PeproTech), macrophage stimulating cytokine (protein, UniProt P01579 24-161, looked up)
# Interferon gamma: QDPYVKEAENLKKYFNAGHSDVADNGTLFLGILKNWKEESDRKIMQSQIVSFYFKLFKNFKDDQSIQKSVETIKEDMNVKFFNSNKKKRDDFEKLTNYSVTDLNVQRKAIHELIQVMAELSPAAKTGKRKRSQMLFRG
# Experiments:
# [1] = test system: M0, M2a and M2b macrophages; experiment: Phagocytic response to SIRPaFc after re-polarization of M0, M2a and M2b macrophages; type: cell-based, human; details: overnight treatment with the agent; FIGS. 3A-3C
# From the text: Heparinized whole blood was obtained from normal healthy human donors (Biological Specialty Corporation) and informed consent was obtained from all donors. Peripheral blood mononuclear cells (PBMCs) were isolated over Ficoll-Paque Plus density gradient (GE Healthcare) and CD14+ monocytes were isolated from PBMCs by positive selection using CD14 antibody-coated MicroBead separation (Miltenyi Biotec). Monocytes were differentiated into macrophages by culturing for at least 10 days in X-Vivo-15 media (Lonza) supplemented with 20 ng/mL M-CSF (PeproTech). Macrophages were washed and were polarized into M0, M2a, and M2b by culturing one day with 20 ng/mL M-CSF, 20 ng/mL IL-4 (PeproTech) or 50 ug/mL heat aggregated human gamma globulin (HAGG) and 20 ng/mL IL-1β (PeproTech), respectively. One day following polarization, polarization media was washed off, and cells were treated with 20 ng/mL IFN-γ (PeproTech), 1000 U/mL IFNα2a (PBL Assay Science), 20 ng/mL IL-10 (PeproTech), 10 ug/mL Poly (I:C) (InvivoGen), 1 ug/mL LPS (MDBiosciences), 1 ug/mL R848 (InvivoGen), or 10 ug/mL ODN2395 CpG (InvivoGen) overnight. On the next day, macrophages were harvested using enzyme-free cell dissociation buffer (ThermoFisher) for flow-based phagocytosis assay. Human B cell lymphoma cell line, Toledo, was labeled with Violet Proliferation Dye 450 (BD Biosciences) and added to repolarized macrophages in a round-bottom non-tissue culture treated 96-well plate at a 1:5 effector:target ratio. […] Cells were acquired on a FACSVerse flow cytometer, and data was analyzed using FlowJo software (Treestar Inc.). Macrophages were identified as live, single, CD14+CD11b+ cells. Doublets were excluded by SSC-W and SSC-H discrimination. Phagocytosis was assessed as the % of macrophages that were VPD450+. Statistical significance was calculated by unpaired t-test vs isotype control using GraphPad Prism software.
# [2] = test system: CD64; experiment: FcγR (CD16, CD32, CD64) expression on re-polarized M0, M2a and M2b macrophages by flow cytometry; type: cell-based, human; details: overnight stimulation with the agent, FIG. 4
# From the text: Heparinized whole blood was obtained from normal healthy human donors (Biological Specialty Corporation) and informed consent was obtained from all donors. Peripheral blood mononuclear cells (PBMCs) were isolated over Ficoll-Paque Plus density gradient (GE Healthcare) and CD14+ monocytes were isolated from PBMCs by positive selection using CD14 antibody-coated MicroBead separation (Miltenyi Biotec). Monocytes were differentiated into macrophages by culturing for at least 10 days in X-Vivo-15 media (Lonza) supplemented with 20 ng/mL M-CSF (PeproTech). Macrophages were washed and were polarized into M0, M2a, and M2b by culturing one day with 20 ng/mL M-CSF, 20 ng/mL IL-4 (PeproTech) or 50 ug/mL heat aggregated human gamma globulin (HAGG) and 20 ng/mL IL-1β (PeproTech), respectively. One day following polarization, polarization media was washed off, and cells were treated with 20 ng/mL IFN-γ (Peprotech), 1000 U/mL IFNa2a (PBL Assay Science), 20 ng/mL IL-10 (PeproTech), 10 ug/mL Poly (I:C) (InvivoGen), 1 ug/mL LPS (MDBiosciences), 1 ug/mL R848 (InvivoGen), or 10 ug/mL ODN2395 CpG (InvivoGen) overnight. On the next day, macrophages were harvested using enzyme-free cell dissociation buffer (ThermoFisher) for analysis of CD16, CD32 and CD64 expression. Macrophages were blocked with human Fc receptor binding inhibitor (ebioscience) and were stained with Near-IR LIVE/DEAD fixable dead cell stain (Invitrogen), FITC-conjugated anti-CD16 (Clone CB16), FITC-conjugated anti-CD32 (Clone FL18.26) and V450-conjugated anti-CD64 (Clone 10.1) in three independent cocktails. Cells were washed and resuspended in stabilizing fixative (BD Biosciences), and data was acquired on a FACSVerse flow cytometry machine, and data was analyzed using FlowJo software (Treestar Inc.). Macrophages were identified as live, single cells. Doublets were excluded by SSC-W and SSC-H discrimination.
# [3] = test system: Human B cell lymphoma cell line, Toledo; experiment: Flow-based phagocytosis assay: polarized human monocyte-derived macrophages co-cultured with Toledo tumor cells; type: cell-based; details: 1 uM SIRPaFc, FIG. 1
# From the text: Heparinized whole blood was obtained from normal healthy human donors (Biological Specialty Corporation) and informed consent was obtained from all donors. Peripheral blood mononuclear cells (PBMCs) were isolated over Ficoll-Paque Plus density gradient (GE Healthcare) and CD14+ monocytes were isolated from PBMCs by positive selection using CD14 antibody-coated MicroBead separation (Miltenyi Biotec). Monocytes were differentiated into macrophages by culturing for at least 10 days in X-Vivo-15 media (Lonza) supplemented with 20 ng/mL M-CSF (PeproTech). One day prior to the phagocytosis assay the monocyte-derived macrophages were either left untreated in M-CSF media (M0) or treated overnight with 20 ng/mL M-CSF and 300 ng/mL interferon-gamma (IFN-γ) (PeproTech) as M1, 50 ng/mL IFN-γ and 50 ng/mL LPS (MD Biosciences) as M1+LPS, 20 ng/mL IL-4 (PeproTech) as M2a, 20 ng/mL IL-1β (PeproTech) and 50 ug/mL heat aggregated human IgG (HAGG) as M2b or 20 ng/mL IL-10 (PeproTech) and 20 ng/mL TGF (PeproTech) as M2c. […] Cells were acquired on a FACSVerse flow cytometer, and data was analyzed using FlowJo software (Treestar Inc.). […] Doublets were excluded by SSC-W and SSC-H discrimination. % Phagocytosis was assessed as the % of macrophages that were VPD450+. Statistical significance was calculated by unpaired t-test vs isotype control using GraphPad Prism software, where p***<0.001.
# [4] = test system: red blood cells; experiment: Binding to red blood cells
# [5] = target: CD47 (Homo sapiens, UniProt Q08722); experiment: CD47 agonism upon binding
# [6] = test system: cancer cells that present with a CD47+ phenotype; details: described in WO2014/094122; cited from earlier work
# Chain of CD47 (Q08722 19-323): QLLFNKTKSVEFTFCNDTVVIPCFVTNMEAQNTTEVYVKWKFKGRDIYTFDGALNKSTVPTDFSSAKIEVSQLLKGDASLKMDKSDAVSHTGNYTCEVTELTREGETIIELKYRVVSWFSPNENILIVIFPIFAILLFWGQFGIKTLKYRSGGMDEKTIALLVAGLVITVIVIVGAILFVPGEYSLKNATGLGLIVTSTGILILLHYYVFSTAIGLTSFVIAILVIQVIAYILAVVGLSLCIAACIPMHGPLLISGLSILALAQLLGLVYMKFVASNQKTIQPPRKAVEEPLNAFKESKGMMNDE
molecule,measurement,setting,value
IFNα [reference compound],"responsiveness to SIRPaFc (phagocytosis of Toledo cells) of M0, M2a and M2b macrophages after repolarization",[1],increased
same,"expression of CD64 on M0, M2a and M2b macrophages after repolarization",[2],increased
same,"expression of CD64 on M0, M2a and M2b macrophages after repolarization",[2]; listed as IFN-alpha,most striking
"SIRPaFc: human SIRPaFc comprising the V region of human SIRPa variant 2 fused to a wild type human IgG1 Fc region, SEQ ID NO: 3",phagocytosis of DLBCL Toledo cell line by all 6 macrophage subsets,"[3]; M0, M1, M1+LPS, M2a, M2b, M2c macrophages from human PBMC, vs control Fc",increased phagocytosis
same,"SIRPαFc induced phagocytosis by M1 (+/−LPS) and M2c MDMs compared to M0, M2a and M2b subsets",[3]; Toledo cells,superior
same,binding to red blood cells,[4],negligible binding
same,CD47 agonism when binding thereto,[5],negligible CD47 agonism
same,effects on the viability of CD47+ cancer cells,[6],dramatic effects
"polyinosine-polycytidylic acid [Poly (I:C), reference compound]","responsiveness to SIRPaFc (phagocytosis of Toledo cells) of M0, M2a and M2b macrophages after repolarization",[1],increased
same,"expression of CD64 on M0, M2a and M2b macrophages after repolarization",[2],increased
B1,"responsiveness to SIRPaFc (phagocytosis of Toledo cells) of M0, M2a and M2b macrophages after repolarization",[1],increased
same,"expression of CD64 on M0, M2a and M2b macrophages after repolarization",[2],increased; also recorded: most striking
B2,"responsiveness to SIRPaFc (phagocytosis of Toledo cells) of M0, M2a and M2b macrophages after repolarization",[1],increased
same,"expression of CD64 on M0, M2a and M2b macrophages after repolarization",[2],increased

# Source: patent publication US20190091290A1, “MACROPHAGE STIMULATION IN CD47 BLOCKADE THERAPY” (TRILLIUM THERAPEUTICS INC., priority 2016, published 2019)
